Assay [1] deals with T1, MC1-R (B-16 mouse melanoma cells) (Mus musculus, UniProt Q01727).
T1 construct: B-16 mouse melanoma cells (containing MC1-R); endogenous in cells; host or cells: B-16 mouse melanoma cells
Briefly: Competitive inhibition binding assay using [I125]-NDP-α-MSH, MC1-R. Particulars: radioligand [I125]-NDP-α-MSH, B-16 mouse melanoma membranes. The procedure: The assay mixture was incubated for 60 minutes at 37° C., then filtered and the membranes washed three times with ice cold phosphate buffered saline. The filter was dried and counted in a gamma counter for remaining radioactivity bound to the membranes. […] Each assay was conducted in triplicate.

In assay [2] the target is T2, hMC4-R (HEK-293 cells) (Homo sapiens, UniProt P32245).
T2 construct: expressed in transfected cells; host or cells: HEK-293
T2 sequence (P32245 whole entry): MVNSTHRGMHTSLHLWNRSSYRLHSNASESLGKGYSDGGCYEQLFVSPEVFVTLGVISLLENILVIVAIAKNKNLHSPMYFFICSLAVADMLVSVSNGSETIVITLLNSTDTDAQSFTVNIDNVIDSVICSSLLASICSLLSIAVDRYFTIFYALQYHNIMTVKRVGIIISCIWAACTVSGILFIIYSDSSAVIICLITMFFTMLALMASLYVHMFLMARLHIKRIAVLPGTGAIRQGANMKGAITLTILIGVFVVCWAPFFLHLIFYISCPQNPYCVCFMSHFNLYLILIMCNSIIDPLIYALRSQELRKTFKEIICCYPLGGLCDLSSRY
Briefly: cAMP functional assay for agonist/antagonist status, MC4-R. The class given is cell-based. The procedure: (§1) Functional evaluation of peptides at melanocortin receptors was performed by measuring the accumulation of intracellular cAMP in HEK-293 cells expressing hMC3-R, hMC4-R or hMC5-R, and in B-16 mouse melanoma cells expressing MC1-R. Cells suspended in Earle's Balanced Salt Solution containing 10 mM HEPES (pH 7.5), 5 mM MgCl2, 1 mM glutamine, 0.5% albumin and 0.3 mM 3-isobutyl-1-methyl-xanthine, a phosphodiesterase inhibitor, were plated in 96 well plates at a density of 0.5×10^5 cells per well. Cells were incubated with the test peptides in the presence or absence of NDP-α-MSH for 1 hour at 37° C. cAMP levels in the cell lysates were measured using an EIA kit (Amersham). Data analysis and EC50 values were determined using nonlinear regression analysis with Prism Graph-Pad software.
(§2) The agonist/antagonist status with respect to MC1-R, MC4-R and MC5-R of certain peptides of the invention was determined. Antagonistic activity was determined by measuring the inhibition of α-MSH-induced or NDP-α-MSH-induced cAMP levels following exposure to the peptides as in the preceding descriptions.
Evaluation of the molecules to elicit a functional response in HEK-293 cells expressing hMC4-R for agonistic activity was done by measuring the accumulation of intracellular cAMP following treatment. Confluent HEK-293 cells over-expressing MC4-R receptors were detached by enzyme free cell suspension buffer. Cells were suspended in Earle's Balanced Salt Solution containing 10 mM HEPES (pH 7.5), 1 mM MgCl2, 1 mM glutamine, 0.5% albumin and 0.3 mM 3-isobutyl-1-methyl-[…]. The cells were plated in a 96 well plate at a density of 0.5×10^5 cells per well and pre-incubated for 60 minutes. The cells were then challenged with the test peptides dissolved in dimethylsulfoxide (DMSO) at a concentration range of 0.05-5000 nM in a total assay volume of 200 μL for 1 hour at 37° C. The concentration of DMSO was held at 1% in the assay mixture. NDP-α-MSH was used as the reference agonist. At the end of the incubation period the cells were disrupted by the addition of 50 μL lysis buffer from the cAMP EIA kit (Amersham). Complete rupture of the cells was ensured by pipetting the cells. cAMP levels in the cell lysates were measured after appropriate dilution using the EIA kit (Amersham) method. Data analysis and EC50 values were determined by using nonlinear regression analysis with the Prism Graph-Pad software.

Assay [3] addresses T3, MC3-R (Homo sapiens, UniProt P41968).
T3 construct: expressed in transfected cells; host or cells: HEK-293
Briefly: Competitive inhibition Ki (AgRP), MC3-R. It counts as binding. The note with it: AgRP as competing ligand. The protocol:
(§3) The assay mixture was incubated for 60 minutes at 37° C., then filtered and the membranes washed three times with ice cold phosphate buffered saline. The filter was dried and counted in a gamma counter for remaining radioactivity bound to the membranes. 100% specific binding was defined as the difference in radioactivity (cpm) bound to cell membranes in the absence and presence of 1 μM NDP-α-MSH. […] Each assay was conducted in triplicate. The Ki (nM) of certain peptides of the invention were determined using similar assay protocols and testing peptides over a wider dose range.

Assay [4] deals with T4, hMC5-R (Homo sapiens, UniProt P33032).
T4 construct: expressed in transfected cells; host or cells: HEK-293
T4 sequence (P33032 whole entry): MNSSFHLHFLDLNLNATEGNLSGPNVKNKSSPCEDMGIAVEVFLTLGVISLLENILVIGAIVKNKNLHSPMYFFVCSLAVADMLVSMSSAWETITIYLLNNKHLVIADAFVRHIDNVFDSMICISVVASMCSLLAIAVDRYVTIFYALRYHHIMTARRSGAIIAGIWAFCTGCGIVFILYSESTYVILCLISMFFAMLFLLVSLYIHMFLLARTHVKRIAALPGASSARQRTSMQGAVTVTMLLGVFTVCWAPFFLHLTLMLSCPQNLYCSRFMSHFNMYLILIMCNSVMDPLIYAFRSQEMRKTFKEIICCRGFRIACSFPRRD
Put plainly: Competitive inhibition binding assay using [I125]-NDP-α-MSH, hMC5-R. The note with it: radioligand [I125]-NDP-α-MSH, HEK-293 membranes; read-out: Ki (NDP-α-MSH) MC5-R. The procedure:
(§4) The assay tube also contained a chosen concentration of the test peptide of this invention, typically a 1 μM concentration, for determining its efficacy in inhibiting the binding of [I^125]NDP-α-MSH to the receptor.
as §3

Assay [5] addresses T5, MC4-R (Homo sapiens, UniProt P32245).
T5 construct: expressed in transfected cells; host or cells: HEK-293
Put plainly: Competitive inhibition Ki (AgRP), MC4-R. The class given is binding. Particulars: AgRP as competing ligand.

Assay [6] concerns the target T1, MC1-R (B-16 mouse melanoma cells). Briefly: cAMP functional assay for agonist/antagonist status, MC1-R. The class given is cell-based. The protocol: Data analysis and EC50 values were determined using nonlinear regression analysis with Prism Graph-Pad software.
The agonist/antagonist status with respect to MC1-R, MC4-R and MC5-R of certain peptides of the invention was determined.

Assay [7] addresses T5, MC4-R. Briefly: Competitive inhibition binding assay using [I125]-NDP-α-MSH, hMC4-R. Particulars: radioligand [I125]-NDP-α-MSH, HEK-293 membranes; read-out: Ki (NDP-α-MSH) MC4-R. The protocol: as §4, §3
Assay [8] concerns the target T6, hMC3-R (HEK-293 cells) (Homo sapiens, UniProt P41968).
T6 construct: expressed in transfected cells; host or cells: HEK-293
Briefly: cAMP functional assay for agonist/antagonist status, MC3-R. It counts as cell-based. The protocol: as §1, §2

Assay [9] concerns the target T3, MC3-R. Put plainly: Competitive inhibition binding assay using [I125]-NDP-α-MSH, hMC3-R. The note with it: radioligand [I125]-NDP-α-MSH, HEK-293 membranes; read-out: Ki (NDP-α-MSH) MC3-R. The procedure:
as §4, §3

Setting [10] is: cAMP response ratio to NDP-α-MSH.

Where a SMILES comes first, the peptide text is derived from it. Bridges are numbered along the chain shown (N, C = ends). [ ]: non-standard residue; d: D form. 1Nal = N[C@@H](Cc1cccc2ccccc12)C(=O)O

T6 sequence (P41968 whole entry): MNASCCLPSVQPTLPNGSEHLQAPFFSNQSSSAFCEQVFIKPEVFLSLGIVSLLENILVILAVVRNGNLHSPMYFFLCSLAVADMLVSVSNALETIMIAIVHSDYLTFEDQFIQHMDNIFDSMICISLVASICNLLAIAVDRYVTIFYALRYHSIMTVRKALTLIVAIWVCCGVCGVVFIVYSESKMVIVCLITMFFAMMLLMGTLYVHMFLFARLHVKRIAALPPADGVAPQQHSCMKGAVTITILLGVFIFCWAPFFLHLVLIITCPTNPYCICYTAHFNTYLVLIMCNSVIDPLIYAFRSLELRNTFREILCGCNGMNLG
T1 sequence (Q01727 whole entry): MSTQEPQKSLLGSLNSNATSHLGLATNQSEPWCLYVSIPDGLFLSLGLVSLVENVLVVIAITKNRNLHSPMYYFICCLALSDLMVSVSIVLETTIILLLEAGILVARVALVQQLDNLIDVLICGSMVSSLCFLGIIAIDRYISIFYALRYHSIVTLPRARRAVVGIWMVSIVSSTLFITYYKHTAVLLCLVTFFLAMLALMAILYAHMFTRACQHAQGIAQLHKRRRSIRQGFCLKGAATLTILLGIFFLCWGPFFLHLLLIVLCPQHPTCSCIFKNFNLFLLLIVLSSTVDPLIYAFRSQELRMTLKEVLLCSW
T5 sequence (P32245 whole entry): as the sequence (P32245 whole entry) above
T3 sequence (P41968 whole entry): as the sequence (P41968 whole entry) above

As for `CCNC(=O)[C@@H]1CCCCNC(=O)C[C@H](NC(C)=O)C(=O)N[C@@H](Cc2c[nH]cn2)C(=O)N[C@H](Cc2ccccc2)C(=O)N[C@@H](CCCNC(=N)N)C(=O)N[C@@H](Cc2cccc3ccccc23)C(=O)N1` [Example 16, Ac-cyclo(-Asp-His-D-Phe-Arg-Nal 1-Lys)-NH—CH2—CH3] (Ac-DH[dF]R[1Nal]K-NHEt; lactam 1-6 (inferred)), the Ki (usually the dissociation constant of the complex between target and ligand, obtained from inhibition or displacement) in assay [1] was 0.018 µM; in assay [3] it was greater than 2 µM; in [4] it was 0.937 µM; in [5] it was 0.284 µM; in [7], 0.157 µM; in assay [9] it was 0.462 µM. Also, the EC50 (commonly the concentration at which the effect is half-maximal) came to 0.5 µM in [2] (cAMP accumulation), 6.41 µM in assay [6] (cAMP accumulation) and 6.21 µM in assay [8] (cAMP accumulation). The “agonist/antagonist status as to MC4-R” value in [2] (cAMP assay) is “agonist (response ratio compared to NDP-α-MSH of 0.7 and above were classified as full agonists)”. Also, in assay [2] (setting [10]), the “efficacy relative to NDP-α-MSH, MC4-R” value is listed as 1.1. Moreover, the “agonist/antagonist status as to MC1-R” value in [6] (cAMP assay) is “agonist (response ratio compared to NDP-α-MSH of 0.7 and above were classified as full agonists)”. Also, in assay [6] (setting [10]), the “efficacy relative to NDP-α-MSH, MC1-R” value turned out to be 0.9. Moreover, in assay [8] (cAMP assay), the “agonist/antagonist status as to MC3-R” value was “agonist (response ratio compared to NDP-α-MSH of 0.7 and above were classified as full agonists)”. Also, the “efficacy relative to NDP-α-MSH, MC3-R” value in [8] (setting [10]) came out at 0.8.

The record behind these values is patent US8247530B2, “N-alkylated cyclic peptide melanocortin agonists” (Palatin Technologies, Inc., priority 2005, dated 2012).
